Results reported in PubChem BioAssay AID1259411 (Chemical Carcinogenesis Research Information System (CCRIS), 2018).
The source made the active and inactive calls. No rule for the calls is given here.

System: rodent carcinogenicity bioassays, tumor incidence
Assay: CCRIS carcinogenicity studies
Details: Species: RAT
How it was run: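 NCI-built, expert-reviewed records of carcinogenicity and related test outcomes (mutagenicity, tumor promotion/inhibition) compiled from published and report sources, historical span 1985-2011, not updated.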

Measured: carcinogen call

CCN(N=O)C(N)=O
active: Strain/Sex: F344/MALE, Route: GAVAGE, Dose: 0, 2.4 MG IN 0.2 ML ETHYL ACETATE/CORN OIL (1:1) 2/WK FOR 28 WK (TOTAL DOSE: 135 MG) (STUDY DURATION: 80 WK), Tumor Site: Type of Lesion: FORESTOMACH: CARCINOMA, LUNG: CARCINOMA OR ADENOMA active; positive | Strain/Sex: F344/MALE, Route: GAVAGE, Dose: 0, 6 MG/ML (TOTAL DOSE 0; 0.4 MMOL) IN 2 ML ETHYL ACETATE AND CORN OIL (1:2) 2/WK FOR 20 WK (STUDY DURATION: LIFETIME), Dose: 0, 6 MG/ML (TOTAL DOSE 0; 0.4 MMOL) IN 2 ML ETHYL ACETATE AND CORN OIL (1:2) 2/WK FOR 20 WK (STUDY DURATION: LIFETIME), Tumor Site: Type of Lesion: FORESTOMACH: SQUAMOUS CELL CARCINOMA, THYROID: C-CELL TUMOR, FOLLICULAR CELL TUMOR, LUNG: TUMOR, NERVOUS SYSTEM: TUMOR;, Tumor Site: Type of Lesion: FORESTOMACH: SQUAMOUS CELL CARCINOMA, THYROID: C-CELL TUMOR, FOLLICULAR CELL TUMOR, LUNG: TUMOR, NERVOUS SYSTEM: TUMOR active; positive | Strain/Sex: F344/MALE, Route: GAVAGE, Dose: 0, 6 MG/ML IN 0.2 ML ETHYL ACETATE AND CORN OIL 2/WK FOR 20 WK (STUDY DURATION: LIFESPAN), Tumor Site: Type of Lesion: FORESTOMACH: TUMOR, THYROID: C-CELL TUMOR, FOLLICULAR CELL TUMOR, LUNG: TUMOR, NERVOUS SYSTEM: TUMOR, COLON: TUMOR, PERI, Tumor Site: Type of Lesion: FORESTOMACH: TUMOR, THYROID: C-CELL TUMOR, FOLLICULAR CELL TUMOR, LUNG: TUMOR, NERVOUS SYSTEM: TUMOR, COLON: TUMOR, PERI active; positive | Strain/Sex: F344/MALE, Route: GAVAGE, Dose: 0, 12 MG/ML (TOTAL DOSE 0; 1.1 MMOL) IN 2 ML ETHYL ACETATE AND CORN OIL (1:2) 2/WK FOR 28 WK (STUDY DURATION: LIFETIME), Dose: 0, 12 MG/ML (TOTAL DOSE 0; 1.1 MMOL) IN 2 ML ETHYL ACETATE AND CORN OIL (1:2) 2/WK FOR 28 WK (STUDY DURATION: LIFETIME), Tumor Site: Type of Lesion: FORESTOMACH: SQUAMOUS CELL CARCINOMA, LUNG: TUMOR, ILEUM/JEJUNUM: TUMOR, BODY CAVITY: MESOTHELIOMA, ZYMBAL GLAND: TUMOR;, Tumor Site: Type of Lesion: FORESTOMACH: SQUAMOUS CELL CARCINOMA, LUNG: TUMOR, ILEUM/JEJUNUM: TUMOR, BODY CAVITY: MESOTHELIOMA, ZYMBAL GLAND: TUMOR active; positive | Strain/Sex: F344/MALE, Route: GAVAGE, Dose: 0, 12 MG/ML IN 0.2 ML ETHYL ACETATE AND CORN OIL 2/WK FOR 28 WK (STUDY DURATION: LIFESPAN), Tumor Site: Type of Lesion: FORESTOMACH: TUMOR, LUNG: TUMOR, ILEUM/JEJUNUM: TUMOR, PERITONEUM: MESOTHELIOMA, Tumor Site: Type of Lesion: FORESTOMACH: TUMOR, LUNG: TUMOR, ILEUM/JEJUNUM: TUMOR, PERITONEUM: MESOTHELIOMA active; positive | Strain/Sex: F344/MALE, Route: ORAL, Dose: 0, 0.3, 1, 3, 10 PPM IN DRINKING WATER FOR 104 WK (STUDY DURATION: 111 WK), Dose: 0, 0.3, 1, 3, 10 PPM IN DRINKING WATER FOR 104 WK (STUDY DURATION: 111 WK), Tumor Site: Type of Lesion: BRAIN: GLIOMA, MAMMARY GLAND: FIBROMA, LUNG: ADENOMA, LUNG: ADENOCARCINOMA, PERITONEUM: MESOTHELIOMA, Tumor Site: Type of Lesion: BRAIN: GLIOMA, MAMMARY GLAND: FIBROMA, LUNG: ADENOMA, LUNG: ADENOCARCINOMA, PERITONEUM: MESOTHELIOMA active; positive | Strain/Sex: SPRAGUE-DAWLEY/FEMALE, Route: IN UTERO, Dose: 0, 2.5, 10 MG/KG BW ONCE ADMINISTERED INTRAVENOUSLY ON DAY 15 OF GESTATION (STUDY DURATION: 104 WK), Dose: 0, 2.5, 10 MG/KG BW ONCE ADMINISTERED INTRAVENOUSLY ON DAY 15 OF GESTATION (STUDY DURATION: 104 WK), Tumor Site: Type of Lesion: BRAIN: GLIOMA active; positive | Strain/Sex: SPRAGUE-DAWLEY/MALE, Route: IN UTERO, Dose: 0, 2.5, 10 MG/KG BW ONCE ADMINISTERED INTRAVENOUSLY ON DAY 15 OF GESTATION (STUDY DURATION: 104 WK), Dose: 0, 2.5, 10 MG/KG BW ONCE ADMINISTERED INTRAVENOUSLY ON DAY 15 OF GESTATION (STUDY DURATION: 104 WK), Tumor Site: Type of Lesion: BRAIN: GLIOMA active; positive | Strain/Sex: SPRAGUE-DAWLEY, Route: INTRAVENOUSLY TO MATERNAL RATS AT 15 D OF GESTATION, PROGENY OBSERVED, Dose: 0, 2.5, 6.25, 10.0 MG/KG BW (STUDY DURATION: 24 MO), Dose: 0, 2.5, 6.25, 10.0 MG/KG BW (STUDY DURATION: 24 MO), Tumor Site: Type of Lesion: BRAIN: OLIGODENDRO-GLIOMA AND MIXED GLIOMA active; positive | Strain/Sex: SPRAGUE-DAWLEY, Route: INTRAVENOUSLY TO MOTHERS AT 15 D OF GESTATION, PROGENY OBSERVED, Dose: 0, 2.5, 6.25, 10.0 MG/KG BW (STUDY DURATION: 2 YRS), Dose: 0, 2.5, 6.25, 10.0 MG/KG BW (STUDY DURATION: 2 YRS), Tumor Site: Type of Lesion: CRANIAL NERVE: TUMORS active; positive | Strain/Sex: SPRAGUE-DAWLEY, Route: INTRAVENOUSLY TO MOTHERS AT 15 D OF GESTATION, PROGENY OBSERVED, Dose: 0, 2.5, 6.25, 10.0 MG/KG BW (STUDY DURATION: 2 YRS), Dose: 0, 2.5, 6.25, 10.0 MG/KG BW (STUDY DURATION: 2 YRS), Tumor Site: Type of Lesion: SPINAL NERVE: TUMORS active; positive | Strain/Sex: SPRAGUE-DAWLEY, Route: INTRAVENOUSLY TO MOTHERS AT 15 D OF GESTATION, PROGENY OBSERVED, Dose: 0, 2.5, 6.25, 10.0 MG/KG BW (STUDY DURATION: 24 MO), Dose: 0, 2.5, 6.25, 10.0 MG/KG BW (STUDY DURATION: 24 MO), Tumor Site: Type of Lesion: SPINAL CORD: TUMORS active; positive | Strain/Sex: WISTAR/MALE, FEMALE, Route: SUBCUTANEOUS, Dose: 0, 60 MG/KG BW ADMINISTERED TO 3 DAY OLD RATS (STUDY DURATION: 12 MO), Tumor Site: Type of Lesion: CENTRAL NERVOUS SYSTEM: GLIOMA active; positive | Strain/Sex: WISTAR/MALE, FEMALE, Route: TRANSPLACENTAL, Dose: 0, 60 MG/KG BW INTRAVENOUS DOSE ADMINISTERED TO LATE GESTATIONAL RATS AND OFFSPRING OBSERVED FOR 12 MO (STUDY DURATION:, Tumor Site: Type of Lesion: CENTRAL NERVOUS SYSTEM: GLIOMA active; positive | Strain/Sex: WISTAR/MALE, Route: INTRAPERITONEAL, Dose: 300 MG/KG BW 1/WK FOR 45 WK (STUDY DURATION: 45 WK), Tumor Site: Type of Lesion: INTEGUMENTARY SYSTEM (SUBCUTANEOUS TISSUE): SPINDLE CELL SARCOMA active; positive
